Laboratory results from PubChem BioAssay (NCI).
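In this assay, cells in 96-well plates receive the compound at five concentrations for 48 hours. Endpoints are linearly interpolated between the surrounding concentrations. Definition used: TGI = concentration required for complete inhibition of growth.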

Columns and labels:
Test in all cases: NCI tumour cell line growth inhibition, 48 h
[1] = test system: HOP-62 NSCLC
[2] = test system: SF-268 CNS
[3] = test system: A549 NSCLC
[4] = test system: DU-145 prostate
[5] = test system: LOX IMVI melanoma
[6] = test system: RXF 393 renal
[7] = test system: NCI-H522 lung
[8] = test system: HCT-15 colon
[9] = test system: HCC-2998 colon
[10] = test system: A498 renal
[11] = test system: SNB-19 CNS
[12] = test system: SF-295 CNS
[13] = test system: CAKI-1 renal
[14] = test system: MALME-3M melanoma
[15] = test system: K-562 leukemia
[16] = test system: RPMI-8226 leukemia
[17] = test system: SK-MEL-28 melanoma
[18] = test system: SF-539 CNS
[19] = test system: UACC-62 melanoma
[20] = test system: HT29 colon
[21] = test system: NCI-H23 lung
[22] = test system: SR leukemia
[23] = test system: IGROV1 ovarian
[24] = test system: SK-MEL-2 melanoma
[25] = test system: NCI-H460 lung
[26] = test system: MDA-MB-435
[27] = test system: PC-3 prostate
[28] = test system: MDA-MB-231 breast
[29] = test system: BT-549 breast
[30] = test system: M14 melanoma
[31] = test system: OVCAR-5 ovarian
[32] = test system: OVCAR-4 ovarian
[33] = test system: CCRF-CEM leukemia
[34] = test system: SW-620 colon
[35] = test system: KM12 colon
[36] = test system: MDA-N
[37] = test system: TK-10 renal
[38] = test system: SK-OV-3 ovarian
[39] = test system: OVCAR-3 ovarian
[40] = test system: HS 578T breast
[41] = test system: SNB-75 CNS
[42] = test system: SK-MEL-5 melanoma
[43] = test system: ACHN renal
[44] = test system: HL-60(TB) leukemia
[45] = test system: T-47D breast
[46] = test system: 786-0 renal
[47] = test system: UO-31 renal
[48] = test system: MCF7 breast
[49] = test system: EKVX NSCLC
[50] = test system: MOLT-4 leukemia
[51] = test system: UACC-257 melanoma
[52] = test system: U251 CNS
[53] = test system: SN12C renal
[54] = test system: HCT-116 colon
[55] = test system: COLO 205 colon
[56] = test system: NCI/ADR-RES ovarian
[57] = test system: OVCAR-8 ovarian
[58] = test system: HOP-92 NSCLC
[59] = test system: NCI-H226 lung

O=C(Cn1cc(F)c(=O)[nH]c1=O)C12CC3CC(CC(C3)C1)C2
TGI [1]: > 100 µM
TGI [2]: > 100 µM
TGI [3]: > 100 µM
TGI [4]: > 100 µM
TGI [5]: > 100 µM
TGI [6]: > 100 µM
TGI [7]: > 100 µM
TGI [8]: > 100 µM
TGI [9]: > 100 µM
TGI [10]: > 100 µM
TGI [11]: > 100 µM
TGI [12]: > 100 µM
TGI [13]: > 100 µM
TGI [14]: > 100 µM
TGI [15]: > 100 µM
TGI [16]: > 100 µM
TGI [17]: > 100 µM
TGI [18]: > 100 µM
TGI [19]: > 100 µM
TGI [20]: > 100 µM
TGI [21]: > 100 µM
TGI [22]: > 100 µM
TGI [23]: > 100 µM
TGI [24]: > 100 µM
TGI [25]: > 100 µM
TGI [26]: > 100 µM
TGI [27]: > 100 µM
TGI [28]: > 100 µM
TGI [29]: > 100 µM
TGI [30]: > 100 µM
TGI [31]: > 100 µM
TGI [32]: > 100 µM
TGI [33]: > 100 µM
TGI [34]: > 100 µM
TGI [35]: > 100 µM
TGI [36]: > 100 µM
TGI [37]: > 100 µM
TGI [38]: > 100 µM
TGI [39]: > 100 µM
TGI [40]: > 100 µM
TGI [41]: > 100 µM
TGI [42]: > 100 µM
TGI [43]: > 100 µM
TGI [44]: > 100 µM
TGI [45]: > 100 µM
TGI [46]: > 100 µM
TGI [47]: > 100 µM
TGI [48]: > 100 µM
TGI [49]: > 100 µM
TGI [50]: > 100 µM
TGI [51]: > 100 µM
TGI [52]: > 100 µM
TGI [53]: > 100 µM
TGI [54]: > 100 µM
TGI [55]: > 100 µM
TGI [56]: > 100 µM
TGI [57]: > 100 µM

Cc1cccc2c(=O)c3c(O)cc(O)cc3[nH]c12
TGI [1]: > 10 µM
TGI [2]: > 10 µM
TGI [3]: > 10 µM
TGI [4]: > 10 µM
TGI [5]: > 10 µM
TGI [6]: > 10 µM
TGI [7]: > 10 µM
TGI [8]: > 10 µM
TGI [9]: > 10 µM
TGI [10]: > 10 µM
TGI [11]: > 10 µM
TGI [12]: > 10 µM
TGI [13]: > 10 µM
TGI [14]: > 10 µM
TGI [15]: > 10 µM
TGI [16]: > 10 µM
TGI [17]: > 10 µM
TGI [18]: > 10 µM
TGI [19]: > 10 µM
TGI [20]: > 10 µM
TGI [21]: > 10 µM
TGI [23]: > 10 µM
TGI [24]: > 10 µM
TGI [58]: > 10 µM
TGI [25]: > 10 µM
TGI [26]: > 10 µM
TGI [27]: > 10 µM
TGI [28]: > 10 µM
TGI [29]: > 10 µM
TGI [30]: > 10 µM
TGI [31]: > 10 µM
TGI [32]: > 10 µM
TGI [33]: > 10 µM
TGI [34]: > 10 µM
TGI [35]: > 10 µM
TGI [36]: > 10 µM
TGI [37]: > 10 µM
TGI [38]: > 10 µM
TGI [39]: > 10 µM
TGI [40]: > 10 µM
TGI [41]: > 10 µM
TGI [42]: > 10 µM
TGI [43]: > 10 µM
TGI [45]: > 10 µM
TGI [46]: > 10 µM
TGI [47]: > 10 µM
TGI [59]: > 10 µM
TGI [48]: > 10 µM
TGI [49]: > 10 µM
TGI [50]: > 10 µM
TGI [51]: > 10 µM
TGI [52]: > 10 µM
TGI [53]: > 10 µM
TGI [54]: > 10 µM
TGI [55]: > 10 µM
TGI [56]: > 10 µM
TGI [57]: > 10 µM

Cc1ccccc1NC(=O)C(=O)CC(=O)c1sc(Nc2ccccc2[N+](=O)[O-])nc1C
TGI [1]: 58.1 µM
TGI [2]: > 100 µM
TGI [3]: > 100 µM
TGI [4]: > 100 µM
TGI [5]: > 100 µM
TGI [6]: 89.1 µM
TGI [7]: 86.1 µM
TGI [8]: > 100 µM
TGI [9]: 59.3 µM
TGI [11]: > 100 µM
TGI [12]: 66.7 µM
TGI [13]: > 100 µM
TGI [15]: > 100 µM
TGI [16]: > 100 µM
TGI [17]: 82.8 µM
TGI [18]: 91 µM
TGI [19]: 48 µM
TGI [20]: > 100 µM
TGI [21]: > 100 µM
TGI [23]: > 100 µM
TGI [24]: > 100 µM
TGI [58]: 59.6 µM
TGI [25]: > 100 µM
TGI [26]: > 100 µM
TGI [27]: > 100 µM
TGI [28]: 40.2 µM
TGI [29]: 79 µM
TGI [30]: > 100 µM
TGI [31]: > 100 µM
TGI [32]: 52.9 µM
TGI [34]: > 100 µM
TGI [35]: > 100 µM
TGI [36]: > 100 µM
TGI [37]: 81.5 µM
TGI [38]: 58.7 µM
TGI [39]: 79.5 µM
TGI [40]: > 100 µM
TGI [42]: > 100 µM
TGI [43]: 48.3 µM
TGI [44]: > 100 µM
TGI [45]: 68.1 µM
TGI [46]: 48.3 µM
TGI [47]: 32.4 µM
TGI [59]: > 100 µM
TGI [48]: 70.3 µM
TGI [49]: > 100 µM
TGI [50]: > 100 µM
TGI [51]: > 100 µM
TGI [52]: > 100 µM
TGI [53]: > 100 µM
TGI [54]: > 100 µM
TGI [55]: > 100 µM
TGI [56]: > 100 µM
TGI [57]: > 100 µM
